Measured values reported in US20110251063A1, “HETEROCYCLIC DIKETONE DERIVATIVES WITH HERBICIDAL ACTION” (priority 2008, published 2011).

Tests used:
AMARE = experiment: greenhouse post-emergence herbicidal activity against AMARE; assay type: in vivo, Amaranthus retroflexus; settings: scale 0 to 100
Text: (§1) The seeds of the test plants were sown separately for each species. For the post-emergence treatment, the test plants were first grown to a height of 3 to 15 cm, depending on the plant habit, and then treated with the active compounds which had been suspended or emulsified in water. For this purpose, the test plants were either sown directly and grown in the same containers, or they were first grown separately as seedlings and transplanted into the test containers a few days prior to treatment. Depending on the species, the plants were kept at 10-25° C. or 20-35° C. The test period extended over 2 to 4 weeks. During this time, the plants were tended, and their response to the individual treatments was evaluated. Evaluation was carried out using a scale from 0 to 100. 100 means no emergence of the plants, or complete destruction of at least the aerial moieties, and 0 means no damage, or normal course of growth. A good herbicidal activity is given at values of at least 70 and a very good herbicidal activity is given at values of at least 85. The plants used in the greenhouse experiments belonged to the following species: [table]

CHEAL = experiment: greenhouse post-emergence herbicidal activity against CHEAL; assay type: in vivo, Chenopodium album; settings: scale 0 to 100
Text: as §1

ABUTH = experiment: greenhouse pre-emergence herbicidal activity against ABUTH; assay type: in vivo, Abutilon theophrasti; settings: application rate 3.0 kg/ha, scale 0 to 100
Text: (§2) The seeds of the test plants were sown separately for each species. For the pre-emergence treatment, the active compounds, which had been suspended or emulsified in water, were applied directly after sowing by means of finely distributing nozzles. The containers were irrigated gently to promote germination and growth and subsequently covered with transparent plastic hoods until the plants had rooted. This cover caused uniform germination of the test plants, unless this has been impaired by the active compounds. Depending on the species, the plants were kept at 10-25° C. or 20-35° C. The test period extended over 2 to 4 weeks. During this time, the plants were tended, and their response to the individual treatments was evaluated. Evaluation was carried out using a scale from 0 to 100. 100 means no emergence of the plants, or complete destruction of at least the aerial moieties, and 0 means no damage, or normal course of growth. A good herbicidal activity is given at values of at least 70 and a very good herbicidal activity is given at values of at least 85. The plants used in the greenhouse experiments belonged to the following species: [table]

SETIT = experiment: greenhouse pre-emergence herbicidal activity against SETIT; assay type: in vivo, Setaria italica; settings: application rate 3.0 kg/ha, scale 0 to 100
Text: as §2

ALOMY = experiment: greenhouse post-emergence herbicidal activity against ALOMY; assay type: in vivo, Alopecurus myosuroides; settings: application rate 3.0 kg/ha, scale 0 to 100
Text: as §1

GALAP = experiment: greenhouse post-emergence herbicidal activity against GALAP; assay type: in vivo, Galium aparine; settings: application rate 0.25 kg/ha, scale 0 to 100
Text: as §1

SETFA = experiment: greenhouse post-emergence herbicidal activity against SETFA; assay type: in vivo, Setaria faberi; settings: application rate 3.0 kg/ha, scale 0 to 100
Text: as §1

Row | Compound | herbicidal activity against AMARE (AMARE; application rate 0.5 kg/ha) | herbicidal activity against CHEAL (CHEAL; application rate 0.5 kg/ha) | herbicidal activity against ABUTH (ABUTH) | herbicidal activity against SETIT (SETIT) | herbicidal activity against ALOMY (ALOMY) | herbicidal activity against AMARE (AMARE; application rate 0.25 kg/ha) | herbicidal activity against CHEAL (CHEAL; application rate 0.25 kg/ha) | herbicidal activity against GALAP (GALAP) | herbicidal activity against SETFA (SETFA)
1 | COC(=O)C(=C(OC(C)=O)c1ncccc1OC(C)=O)c1ccccc1C(F)(F)F [I-2, methyl 3-acetoxy-3-(3-acetoxypyridin-2-yl)-2-(2-trifluoromethylphenyl)acrylate] | Very good | Very good |  |  |  |  |  |  | 
2 | COC(=O)C(C(=O)c1ncccc1O)c1ccccc1C(F)(F)F (stereo not drawn) [I-1, methyl 3-(3-hydroxypyridin-2-yl)-3-oxo-2-(2-trifluoromethylphenyl)propionate] |  |  | good (A good herbicidal activity is given at values of at least 70) | very good (a very good herbicidal activity is given at values of at least 85) | good (A good herbicidal activity is given at values of at least 70) | Very good | Very good | very good (a very good herbicidal activity is given at values of at least 85) | very good (a very good herbicidal activity is given at values of at least 85)
